Read-outs that look alike come from different tables or passages of the source. Each block holds one compound with its values, some of them ahead of it.
What was measured:
[1] = target: AKT1 (Homo sapiens, UniProt P31749); test: Inhibition of AKT isoforms, enzyme IC50; format: biochemical
[2] = target: AKT3 (Homo sapiens, UniProt Q9Y243); test: Inhibition of AKT isoforms, enzyme IC50; format: biochemical
[3] = tested on: HN5 cells; test: Roche Cell Death ELISAPlus apoptosis assay in HN5 cells (median effect and sensitization ratio analysis); format: cell-based
Description: HN5 cells are LICR-LON-HN5 head and neck carcinoma cells, which were a gift from the Institute of Cancer Research, Surrey, U.K.
(§1) Cell lines were grown in RPMI-1640 supplemented with 25 mM HEPES, 10 mM glutamine and 10% fetal bovine serum and maintained at 37° C. and 5% CO2 in a humid incubator. Assays were performed in 96 well microtiter plates with optimum seeding densities for each cell line.
(§2) Apoptosis was measured using the Roche Cell Death ELISA^Plus kit (catalog 1 774 425) which detects fragmented nucleosomal DNA that is generated during apoptosis.
Synergistic interaction between compounds was analyzed by the median effect method described by Chou and Talalay (Adv. Enzyme Regul. 22: 27-55, 1984). Briefly, if the two compounds fit the mutually exclusive model of Chou, one calculates the combination index (CI) using the formula CI=((D)1/(Dx)1)+((D)2/(Dx)2) (1) where (D)1 is the concentration of drug 1 in the combination that gives “x” percent apoptosis, (D)2 is the same for drug 2, and (Dx)1 and (Dx)2 are the concentrations of drug 1 or 2 that give “x” percent apoptosis when used alone. (D)1 and (D)2 are known from the composition of the combination and (Dx)1 and (Dx)2 can be calculated from the equation Dx=Dm*[fa/(1−fa)]^1/m (2) where Dm is the concentration of drug giving 50% effect, fa is the fraction affected, and m is the slope from the median effect plot of log (fa/fu) where fu is the fraction unaffected versus log (D). A CI less than 1 indicates synergy, equal to 1 indicates additivity and greater than 1 antagonism.
(§3) Sensitization is measured as the ratio between observed and expected apoptosis or caspase activation from a combination of AKT kinase inhibitor and EGFR/erb inhibitor. The expected level of activity (Ae) is calculated by Ae=1−((1−A1)*(1−A2)) (3) where A1 and A2 are the activities of drugs 1 and 2 alone at the concentration used in the combination (Harvey, R. J., J. Theor. Biol. 74: 411-437, 1978).

[4] = target: AKT2 (Homo sapiens, UniProt P31751); test: Inhibition of AKT isoforms, enzyme IC50; format: biochemical
[5] = tested on: T47D cells; test: Roche Cell Death ELISAPlus apoptosis assay in T47D cells (sensitization ratio); format: cell-based, human; details: for Apoptosis (FIG. 6): 10 μM GW572016 or 100 μM LY294002 separately
Description: T47D cells are human breast ductal carcinoma cells originally obtained from the American Type Culture Collection.
as §1, §2
The expected level of activity (Ae) is calculated by Ae=1−((1−A1)*(1−A2)) (3) where A1 and A2 are the activities of drugs 1 and 2 alone at the concentration used in the combination (Harvey, R. J., J. Theor. Biol. 74: 411-437, 1978).
Apoptosis was measured using the Roche Cell Death ELISA^Plus kit, and the relative percentage of apoptosis was determined for each combination.

[6] = tested on: MDA-MB468 cells; test: Roche Cell Death ELISAPlus apoptosis assay in MDA-MB468 cells (sensitization ratio); format: cell-based, human
Description: MDA-MB468 cells are human breast adenocarcinoma cells originally obtained from the American Type Culture Collection.
as §1, §2, §3
MDA-MB468 cells were incubated with varied concentrations of GW583340 for 24 h followed by an additional 4 h incubation with varied concentrations of LY294002. Apoptosis was measured using the Roche Cell Death ELISA^Plus kit, and the relative percentage of apoptosis was determined for each combination. When 1, 2, or 5 μM GW583340 were combined with 100 μM LY294002, SR values 3.4, 4.2 and 5.0, respectively, indicated significant synergism. At lower concentrations of LY294002, lesser degrees of synergism were observed.

[7] = GW572016 2 μM 24 h, then LY294002 0 μM 4 h
[8] = GW572016 5 μM 24 h, then LY294002 0 μM 4 h
[9] = GW572016 10 μM 24 h, then LY294002 0 μM 4 h
[10] = HN5, 24 h; concentration of the named drug within the 1:2 GW572016:LY294002 combo at Dm; read-out: Dm, drug in combo
[11] = HN5, 24 h; concentration of the named drug within the 1:10 GW572016:LY294002 combo at Dm; read-out: Dm, drug in combo
[12] = GW583340 1 μM 24 h, then LY294002 0 μM 4 h
[13] = GW583340 2 μM 24 h, then LY294002 0 μM 4 h
[14] = GW583340 5 μM 24 h, then LY294002 0 μM 4 h
[15] = HN5, 24 h; concentration of the named drug within the 1:2 GW589522:LY294002 combo at Dm; read-out: Dm, drug in combo
[16] = HN5, 24 h; concentration of the named drug within the 1:10 GW589522:LY294002 combo at Dm; read-out: Dm, drug in combo
[17] = Homo sapiens, HN5, 24 h; drug alone (Table 3); concentration giving 50% effect; read-out: Dm
[18] = GW583340 0 μM 24 h, then LY294002 4 μM 4 h
[19] = GW583340 0 μM 24 h, then LY294002 10 μM 4 h
[20] = GW583340 0 μM 24 h, then LY294002 20 μM 4 h
[21] = GW583340 0 μM 24 h, then LY294002 50 μM 4 h
[22] = GW583340 0 μM 24 h, then LY294002 100 μM 4 h
[23] = GW572016 0 μM 24 h, then LY294002 20 μM 4 h
[24] = GW572016 0 μM 24 h, then LY294002 50 μM 4 h
[25] = GW572016 0 μM 24 h, then LY294002 100 μM 4 h

Chain of AKT3 (Q9Y243 whole entry, species assumed, canonical isoform): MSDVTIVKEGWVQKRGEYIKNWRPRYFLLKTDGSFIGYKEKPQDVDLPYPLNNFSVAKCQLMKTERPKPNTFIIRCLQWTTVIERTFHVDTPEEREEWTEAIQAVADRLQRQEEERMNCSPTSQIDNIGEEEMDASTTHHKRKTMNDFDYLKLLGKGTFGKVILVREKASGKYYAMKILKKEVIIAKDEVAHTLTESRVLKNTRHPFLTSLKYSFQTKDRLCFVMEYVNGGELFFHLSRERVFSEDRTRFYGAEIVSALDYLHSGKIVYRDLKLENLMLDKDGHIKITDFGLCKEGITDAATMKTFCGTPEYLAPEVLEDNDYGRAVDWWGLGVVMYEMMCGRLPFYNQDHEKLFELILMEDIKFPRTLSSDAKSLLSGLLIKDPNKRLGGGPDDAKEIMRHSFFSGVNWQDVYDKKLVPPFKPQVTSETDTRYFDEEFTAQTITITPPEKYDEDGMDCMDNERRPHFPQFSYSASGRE
Chain of AKT1 (P31749 whole entry, species assumed, canonical isoform): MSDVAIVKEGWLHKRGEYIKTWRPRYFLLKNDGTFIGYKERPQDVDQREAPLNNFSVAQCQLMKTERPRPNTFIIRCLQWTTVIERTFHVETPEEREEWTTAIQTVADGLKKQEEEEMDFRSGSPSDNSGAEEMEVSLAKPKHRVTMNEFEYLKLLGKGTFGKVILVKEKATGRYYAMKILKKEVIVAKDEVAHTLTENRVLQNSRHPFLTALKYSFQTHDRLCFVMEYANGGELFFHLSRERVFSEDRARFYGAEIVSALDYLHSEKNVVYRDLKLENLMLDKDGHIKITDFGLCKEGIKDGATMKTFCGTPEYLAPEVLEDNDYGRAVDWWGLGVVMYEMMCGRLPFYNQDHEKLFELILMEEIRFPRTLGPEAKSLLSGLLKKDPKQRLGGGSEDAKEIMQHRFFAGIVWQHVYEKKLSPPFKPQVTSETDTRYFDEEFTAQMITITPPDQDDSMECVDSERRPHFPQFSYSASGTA
Chain of AKT2 (P31751 whole entry, species assumed, canonical isoform): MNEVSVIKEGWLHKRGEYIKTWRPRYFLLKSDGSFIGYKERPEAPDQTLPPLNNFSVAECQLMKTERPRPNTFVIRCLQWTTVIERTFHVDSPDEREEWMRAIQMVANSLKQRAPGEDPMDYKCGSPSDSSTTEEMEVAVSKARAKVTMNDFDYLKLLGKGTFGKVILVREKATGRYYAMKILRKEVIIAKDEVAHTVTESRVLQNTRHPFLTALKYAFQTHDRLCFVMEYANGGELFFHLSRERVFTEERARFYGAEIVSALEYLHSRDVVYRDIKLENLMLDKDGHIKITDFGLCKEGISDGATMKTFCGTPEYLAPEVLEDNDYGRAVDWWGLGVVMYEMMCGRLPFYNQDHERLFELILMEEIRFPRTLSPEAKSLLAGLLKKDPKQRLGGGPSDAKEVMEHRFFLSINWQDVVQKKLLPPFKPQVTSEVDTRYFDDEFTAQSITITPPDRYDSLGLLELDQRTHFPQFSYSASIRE

IC50 [1]: 0.04 µM
IC50 [2]: 0.01 µM
IC50 [4]: 0.04 µM
SMILES: CCn1c(-c2nonc2N)nc2c(-c3cccc(Cl)c3)ncc(OCCCCN)c21.O=C(O)C(F)(F)F [Ex 12, 4-[7-[(4-aminobutyl)oxy]-4-(3-chlorophenyl)-1-ethyl-1H-imidazo-[4,5-c]pyridin-2-yl]-1,2,5-oxadiazol-3-amine trifluoroacetate]
Sensitization Ratio in HN5 with 5 μM GW589522A ([3]; HN5; 5 μM GW589522A 24 h, then compound 25 μM 4 h): 3.6 @ 25

SMILES: CS(=O)(=O)CCNCc1ccc(-c2ccc3ncnc(Nc4ccc(OCc5cccc(F)c5)c(Cl)c4)c3c2)o1.Cc1ccc(S(=O)(=O)O)cc1.Cc1ccc(S(=O)(=O)O)cc1.O [GW572016, N-{3-Chloro-4-[(3-fluorobenzyl)oxy]phenyl}-6-[5-({[2-(methanesulphonyl)ethyl]amino}methyl)-2-furyl]-4-quinazolinamine ditosylate monohydrate]
Apoptosis (FIG. 6) [5]: little effect
Net Apoptosis [5, 7]: 0.4%
Net avg A405 nm [5, 7]: 0.013
Net Apoptosis [5, 8]: 0.3%
Net avg A405 nm [5, 8]: 0.013
Net Apoptosis [5, 9]: 2.2%
Net avg A405 nm [5, 9]: 0.042
EC50 [3, 10]: 7.2 µM
EC50 [3, 11]: 5.3 µM
Net Apoptosis ([3]; HN5; GW572016 2 μM 24 h, then Ex 9 0 μM 4 h): −1.0%
Net Apoptosis ([3]; HN5; GW572016 4 μM 24 h, then Ex 9 0 μM 4 h): 2.5%
Net Apoptosis ([3]; HN5; GW572016 10 μM 24 h, then Ex 9 0 μM 4 h): 5.1%
EC50 ([3]; Homo sapiens; HN5, 24 h; drug alone (Table 1); concentration giving 50% effect; read-out: Dm): 10.3 µM

SMILES: CS(=O)(=O)CCNCc1nc(-c2ccc3ncnc(Nc4ccc(OCc5cccc(F)c5)c(Cl)c4)c3c2)cs1 [GW583340, (4-(3-Fluoro-benzyloxy)-3-chlorophenyl)-(6-(2-((2-methanesulphonyl-ethylamino)-methyl)-thiazol-4-yl)quinazolin-4-yl)-amine]
Net Apoptosis [6, 12]: 4.8%
Net avg A405 nm [6, 12]: 0.294
Net Apoptosis [6, 13]: 4.2%
Net avg A405 nm [6, 13]: 0.286
Net Apoptosis [6, 14]: 7.4%
Net avg A405 nm [6, 14]: 0.325

SMILES: CS(=O)(=O)CCNCc1ccc(-c2ccc3ncnc(Nc4ccc(OCc5cccc(F)c5)c(Br)c4)c3c2)o1 [GW589522, (4-(3-Fluoro-benzyloxy)-3-bromophenyl)-(6-(5-((2-methanesulphonyl-ethylamino)-methyl)-furan-2-yl)quinazolin-4-yl)-amine]
EC50 [3, 15]: 8.6 µM
EC50 [3, 16]: 4.4 µM
Net Apoptosis ([3]; HN5; GW589522 1.56 μM 24 h, then Ex 9 0 μM 4 h): −1.0%
Net Apoptosis ([3]; HN5; GW589522 3.12 μM 24 h, then Ex 9 0 μM 4 h): 2.5%
Net Apoptosis ([3]; HN5; GW589522 6.25 μM 24 h, then Ex 9 0 μM 4 h): 2.5%
Net Apoptosis ([3]; HN5; GW589522 12.5 μM 24 h, then Ex 9 0 μM 4 h): 5.1%
EC50 [3, 17]: 15.9 µM

SMILES: O=c1cc(N2CCOCC2)oc2c(-c3ccccc3)cccc12 [LY294002, 2-(4-morpholinyl)-8-phenyl-4H-1-benzopyran-4-one, reference compound]
Net Apoptosis [6, 18]: 4.8%
Net avg A405 nm [6, 18]: 0.294
Net Apoptosis [6, 19]: 6.5%
Net avg A405 nm [6, 19]: 0.314
Net Apoptosis [6, 20]: 8.6%
Net avg A405 nm [6, 20]: 0.338
Net Apoptosis [6, 21]: 9.0%
Net avg A405 nm [6, 21]: 0.344
Net Apoptosis [6, 22]: 13.7%
Net avg A405 nm [6, 22]: 0.399
Apoptosis (FIG. 6) [5]: little effect
Net Apoptosis [5, 23]: 2.2%
Net avg A405 nm [5, 23]: 0.041
Net Apoptosis [5, 24]: 3.6%
Net avg A405 nm [5, 24]: 0.063
Net Apoptosis [5, 25]: 4.5%
Net avg A405 nm [5, 25]: 0.077
EC50 [3, 10]: 14.5 µM
EC50 [3, 15]: 17.2 µM
EC50 [3, 11]: 52.9 µM
EC50 [3, 16]: 44.3 µM
EC50 ([3]; Homo sapiens, HN5, 24 h; drug alone (Table 1); concentration giving 50% effect; read-out: Dm): 186 µM
EC50 [3, 17]: 123 µM
